Laboratory results taken from US20100190856A1, “Novel Polyhydroxylated Compounds as Fatty Acid Synthase (FASN) Inhibitors” (UNIVERSIDAD COMPLUTENSE DE MADRID, priority 2007, published 2010).
Where “and” joins values, the source holds several entries; their conditions need not be identical. Equal entries are not always repeated. Entries after “also recorded” stand apart in the source; their conditions may differ. Where two headings read alike, the source gives them in different places.

Tests used:
rat CPT-1 = target: T1, rat CPT-1 (Rattus norvegicus, UniProt Q63704); assay: Carnitine palmitoyltransferase 1 (CPT-1) assay, yeast mitochondria; format: biochemical; design: % CPT-1 activity: concentration or dose not given beside the values; conditions: for % CPT-1 activity: % of DMSO control, mitochondria of P. pastoris expressing rat CPT-1
T1 construct: made in house; host or cells: Pichia pastoris GS115 (isolated intact mitochondria)
T1 sequence (Q63704 1-772): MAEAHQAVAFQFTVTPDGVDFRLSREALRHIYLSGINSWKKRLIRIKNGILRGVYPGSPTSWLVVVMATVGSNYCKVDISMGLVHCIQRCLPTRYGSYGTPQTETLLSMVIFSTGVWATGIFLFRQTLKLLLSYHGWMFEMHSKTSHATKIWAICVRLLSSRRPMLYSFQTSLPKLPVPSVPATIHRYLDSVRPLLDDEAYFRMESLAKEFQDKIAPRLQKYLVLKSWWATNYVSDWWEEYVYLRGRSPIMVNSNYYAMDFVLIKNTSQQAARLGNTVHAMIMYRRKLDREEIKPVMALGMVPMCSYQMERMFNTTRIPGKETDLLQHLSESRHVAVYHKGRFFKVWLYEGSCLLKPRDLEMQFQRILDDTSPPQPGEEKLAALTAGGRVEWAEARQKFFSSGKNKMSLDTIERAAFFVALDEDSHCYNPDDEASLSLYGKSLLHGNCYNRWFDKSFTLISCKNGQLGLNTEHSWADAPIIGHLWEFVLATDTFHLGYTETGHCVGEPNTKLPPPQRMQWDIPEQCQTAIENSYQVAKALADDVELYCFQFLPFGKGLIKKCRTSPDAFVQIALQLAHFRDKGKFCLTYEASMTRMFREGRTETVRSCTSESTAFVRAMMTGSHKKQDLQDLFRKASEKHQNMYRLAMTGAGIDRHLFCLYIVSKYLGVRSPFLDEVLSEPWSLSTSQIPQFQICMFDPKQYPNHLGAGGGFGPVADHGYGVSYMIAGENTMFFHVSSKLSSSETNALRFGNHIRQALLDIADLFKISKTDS
From the text: The expression plasmid pRCPT-Iβ/pHW010 (provided by Gebre Woldegiorgis, Beaverton, Oreg. Published in Woldegiorgis G. et al. Biochem. Biophys. Res. Commun. 2004, 325, 660-4.) was linearized in the GAP gene promoter by digestion with AvrII and integrated into the GAPp locus of P. pastoris GS115 by electroporation. Histidine prototrophic transformants were selected on YND plates and grown on YND medium. Mitochondria were isolated by disrupting the yeast cells with glass beads as previously described.
CPT activity was assayed by the forward exchange method using L-[^3H] carnitine as previously described (Nicot, C. et al., Biochem. Biophys. Res. Comm. 2004, 325, 2745-7). In a total volume of 0.5 mL, the standard enzyme assay mixture contained 0.2 mM L-[^3H]carnitine (˜5000 dpm/nmol), 80 μM palmitoyl-CoA, 20 mM HEPES (pH 7.0), 1% fatty acid-free albumin, and 40-75 mM KCl, with or without malonyl-CoA as indicated. Reactions were initiated by addition of isolated intact yeast mitochondria. The reaction was linear up to 4 min, and all incubations were done at 30° C. for 3 min. Reactions were stopped by addition of 6% perchloric acid and were then centrifuged at 2000 rpm for 7 min. The resulting pellet was suspended in water, and the product [^3H]palmitoylcarnitine was extracted with butanol at low pH. After centrifugation at 2000 rpm for 2 min, an aliquot of the butanol phase was transferred to a vial for radioactive counting.

[1] = within 24 h, mice models; cited from earlier work
FASN = target: T2, FASN (Homo sapiens, UniProt P49327); assay: Fatty acid synthase activity assay in SK-Br3 cells (NADPH oxidation, particle-free supernatants); format: cell-based; design: FASN activity, % of control cells / FASN activity reduced to / reduction of FASN activity: concentration or dose not given beside the values; conditions: for inhibition of FASN activity (in words): SK-Br3 cells treated 6, 12 and 24 hours; for FASN activity, % of control cells: SK-Br3 cells, 24 h exposure
T2 construct: endogenous in cells; host or cells: SK-Br3 breast cancer cells
Protocol: FASN activity of compounds a, b, e, f, h, i, k, m and q was assayed in particle-free supernatants by recording spectrophotometrically at 37° C. (Lambda Bio 20, Perkin Elmer, EUA; using UV Kinlab 2.80.02 software) the decrease of A340nm due to the oxidation of NADPH, as we previously described. After 6, 12, 24 h of exposure to the tested compound, the cells were harvested by treatment with trypsin-EDTA solution, pelleted by centrifugation, washed twice and resuspended in cold PBS. The cells were sonicated during 30 min at 4° C. (PSelecta ultrasons) and centrifuged for 15 min at 4° C. to keep supernatants particle-free. A sample was taken to measure the protein content by a BioRad assay (Bio-Rad Laboratories). One-hundred and twenty micrograms of protein were pre-incubated during 15 min at 37° C. in 0.2 M of potassium phosphate buffer, pH 7.0, for temperature equilibration. The sample was then added to the reaction mixture: 200 mM potassium phosphate buffer, pH 7.0, 1 mM EDTA (Sigma), 1 mM dithiothreitol (Sigma), 30 μM acetyl-CoA (Sigma), 0.24 mM NADPH (Sigma), in 0.3 mL reaction volume were monitored at 340 nm for 3 min to measure the background NADPH oxidation. After the addition of 50 μM of malonyl-CoA (Sigma), the reaction was assayed for additional 10 min to determine FASN-dependent oxidation of NADPH. Rates were corrected for the background rate of NADPH oxidation in the presence of acetyl-CoA. FASN activity was expressed in nmol NADPH oxidized min^−1 mg protein^−1.

[2] = test system: cancer cells overexpressing FASN; conditions: cited from earlier work
[3] = test system: MCF-7 breast cancer cells; assay: MTT cytotoxicity assay, MCF-7 breast cancer cells; format: cell-based, human; conditions: 48 h, read-out: IC50, growth inhibition, MCF-7
Protocol: (§1) MCF-7 and MDA-MB-231 breast cancer cells were obtained from the American Type Culture Collection (ATCC) and were routinely grown in Dulbecco's modified Eagle's medium (DMEM, Gibco) containing 10% fetal bovine serum (FBS, Bio-Whittaker), 1% L-glutamine, 1% sodium pyruvate, 50 U/mL penicillin and 50 μg/mL streptomycin. SK-Br3 breast cancer cells were obtained from Eucellbank (Universidad de Barcelona, Spain) and were passaged in McCoy's 5 A medium containing 10% FBS, 1% L-glutamine, 1% sodium pyruvate, 50 U/mL penicillin and 50 μg/mL streptomycin. Non-malignant fibroblasts N-1 were obtained from Eucellbank (Universidad de Barcelona, Spain) and were passaged in DMEM medium containing 10% FBS, 1% L-glutamine, 1% sodium pyruvate, 50 U/mL penicillin and 50 μg/mL streptomycin. The cells remained free of Mycoplasma and were propagated in adherent culture according to established protocols. Cells were maintained at 37° C. in a humidified atmosphere of 95% air and 5% CO2.
(§2) Drug sensitivity was determined using a standard colorimetric MTT (3-4,5-dimethylthiazol-2-yl-2,5-diphenyltetrazolium bromide) assay. Briefly, cells were plated out at a density of 7×10^3 cells/100 μL/well in 96-well microtitre plates and allowed an overnight period for attachment. Then the medium was removed and fresh medium along with various concentrations of the tested compound were added to the cultures for a period of 48 h. Following the treatment, the cells were fed with drug-free medium (100 μL/well) and 10 μL of MTT solution (5 mg/mL; Sigma, St. Louis, Mo.), and the incubation was prolonged for 3 h at 37° C. After carefully removing the supernatants, the MTT-formazan crystals formed by metabolically viable cells were dissolved in dimethyl sulphoxide (100 μL/well) and the absorbance was measured at 570 nm in a multi-well plate reader (Model Anthos Labtec 2010 1.7 reader).

[4] = test system: MDA-MB-231 breast cancer cells; assay: MTT cytotoxicity assay, MDA-MB-231 breast cancer cells; format: cell-based, human; conditions: MDA-MB-231 cells, 48 h, read-out: IC50, growth inhibition, MDA-MB-231
Protocol: as §1, §2

[5] = test system: SK-Br3 breast cancer cells; assay: MTT cytotoxicity assay, SK-Br3 breast cancer cells; format: cell-based, human; conditions: MTT, 48 h, read-out: IC50, growth inhibition, SK-Br3
Protocol: as §1, §2

[6] = test system: Non-malignant fibroblasts N-1; assay: MTT cytotoxicity assay, non-malignant fibroblasts N-1; format: cell-based; conditions: for IC50: non-malignant fibroblasts, MTT, 48 h, read-out: IC50, growth inhibition, Fibroblasts; for effects in cell death / morphology changes in non-malignant cells: up to doses three-fold their cytotoxic IC50 value in tumoral cells
Protocol: as §1, §2

[7] = rats, oral dose of 56 mg of EGCG; cited from earlier work
[8] = Weight loss in vivo (data not shown)
[9] = Homo sapiens, MCF7, MCF-7 cells

T2 sequence (P49327 whole entry): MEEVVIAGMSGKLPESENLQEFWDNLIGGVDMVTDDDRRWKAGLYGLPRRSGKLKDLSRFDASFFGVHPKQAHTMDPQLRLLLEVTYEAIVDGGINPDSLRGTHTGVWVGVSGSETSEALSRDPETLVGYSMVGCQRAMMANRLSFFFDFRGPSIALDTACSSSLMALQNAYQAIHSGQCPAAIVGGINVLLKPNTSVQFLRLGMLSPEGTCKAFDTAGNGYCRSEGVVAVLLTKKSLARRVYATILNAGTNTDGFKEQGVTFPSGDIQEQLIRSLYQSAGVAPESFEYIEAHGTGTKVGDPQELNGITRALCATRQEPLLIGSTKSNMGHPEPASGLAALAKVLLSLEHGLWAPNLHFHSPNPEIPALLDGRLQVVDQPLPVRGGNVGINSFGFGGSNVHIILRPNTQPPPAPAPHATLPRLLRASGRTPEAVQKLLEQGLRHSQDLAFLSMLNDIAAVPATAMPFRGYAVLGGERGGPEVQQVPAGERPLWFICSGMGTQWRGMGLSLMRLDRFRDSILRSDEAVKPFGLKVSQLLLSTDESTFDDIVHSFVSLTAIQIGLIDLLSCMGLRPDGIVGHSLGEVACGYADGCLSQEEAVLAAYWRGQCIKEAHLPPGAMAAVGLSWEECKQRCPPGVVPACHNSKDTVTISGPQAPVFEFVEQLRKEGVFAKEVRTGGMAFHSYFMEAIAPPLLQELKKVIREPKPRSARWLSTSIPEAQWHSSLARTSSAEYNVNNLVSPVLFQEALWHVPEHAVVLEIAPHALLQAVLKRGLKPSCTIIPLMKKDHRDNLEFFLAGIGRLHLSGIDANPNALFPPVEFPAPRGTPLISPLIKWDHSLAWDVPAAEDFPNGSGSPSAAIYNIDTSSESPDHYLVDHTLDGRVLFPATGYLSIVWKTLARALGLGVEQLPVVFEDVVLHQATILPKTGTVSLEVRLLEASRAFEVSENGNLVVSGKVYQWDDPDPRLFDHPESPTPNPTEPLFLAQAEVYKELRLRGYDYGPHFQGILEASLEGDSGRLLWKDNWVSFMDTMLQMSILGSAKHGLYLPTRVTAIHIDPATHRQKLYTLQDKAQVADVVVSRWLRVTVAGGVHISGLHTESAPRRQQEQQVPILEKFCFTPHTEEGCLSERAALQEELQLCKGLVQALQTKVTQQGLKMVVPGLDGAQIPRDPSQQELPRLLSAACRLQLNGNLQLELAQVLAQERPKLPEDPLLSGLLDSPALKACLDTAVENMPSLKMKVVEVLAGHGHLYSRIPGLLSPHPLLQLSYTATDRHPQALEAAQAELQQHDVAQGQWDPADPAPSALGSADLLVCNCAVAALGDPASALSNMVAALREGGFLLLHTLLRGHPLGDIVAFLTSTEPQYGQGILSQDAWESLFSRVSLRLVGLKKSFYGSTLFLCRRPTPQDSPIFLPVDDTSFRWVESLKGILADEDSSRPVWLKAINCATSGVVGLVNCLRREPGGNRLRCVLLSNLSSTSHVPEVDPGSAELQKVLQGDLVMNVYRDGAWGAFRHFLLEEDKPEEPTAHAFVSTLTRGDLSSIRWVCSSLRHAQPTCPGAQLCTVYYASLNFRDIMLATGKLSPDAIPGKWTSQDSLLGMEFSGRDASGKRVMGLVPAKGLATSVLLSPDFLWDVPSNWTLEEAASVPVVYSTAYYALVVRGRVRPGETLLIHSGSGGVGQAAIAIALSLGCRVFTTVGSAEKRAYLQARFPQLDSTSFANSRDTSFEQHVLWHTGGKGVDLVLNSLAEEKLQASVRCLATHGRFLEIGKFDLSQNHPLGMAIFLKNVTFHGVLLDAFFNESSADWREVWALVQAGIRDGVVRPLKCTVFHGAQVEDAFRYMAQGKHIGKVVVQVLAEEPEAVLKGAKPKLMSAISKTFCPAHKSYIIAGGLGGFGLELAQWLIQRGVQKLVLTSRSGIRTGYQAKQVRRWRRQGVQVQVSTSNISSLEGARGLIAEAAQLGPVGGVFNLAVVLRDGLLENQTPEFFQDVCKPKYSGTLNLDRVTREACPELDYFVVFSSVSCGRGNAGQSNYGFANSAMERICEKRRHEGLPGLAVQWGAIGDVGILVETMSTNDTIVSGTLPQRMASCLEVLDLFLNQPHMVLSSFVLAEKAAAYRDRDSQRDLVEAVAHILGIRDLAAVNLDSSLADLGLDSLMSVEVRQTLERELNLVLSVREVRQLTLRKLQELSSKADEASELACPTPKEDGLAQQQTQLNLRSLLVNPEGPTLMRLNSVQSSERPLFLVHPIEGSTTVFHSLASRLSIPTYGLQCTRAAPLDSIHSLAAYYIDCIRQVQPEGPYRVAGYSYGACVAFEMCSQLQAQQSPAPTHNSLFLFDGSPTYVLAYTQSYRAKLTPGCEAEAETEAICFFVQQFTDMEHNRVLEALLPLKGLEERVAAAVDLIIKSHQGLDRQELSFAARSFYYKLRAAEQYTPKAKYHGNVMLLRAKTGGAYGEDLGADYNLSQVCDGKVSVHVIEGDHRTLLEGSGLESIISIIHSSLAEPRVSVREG

stimulation of CPT-1 activity (in words) (rat CPT-1) | melting point | Structure (SMILES) | % CPT-1 activity (rat CPT-1) | inhibition of FASN activity (in words) (FASN) | IC50 [3, 9] | IC50 ([4]; Homo sapiens) | IC50 ([5]; Homo sapiens, SK-BR-3, 48 h) | further results
stimulates CPT-1 activity |  | C=C1C(=O)O[C@H](CCCCCCCC)[C@H]1C(=O)O [Compound C75, (2R,3S)-4-methylene-2-octyl-5-oxotetrahydrofuran-3-carboxylic acid, reference compound] |  |  |  |  |  | loss of body mass [1]: up to 12%
 |  | O=C(O[C@@H]1Cc2c(O)cc(O)cc2O[C@@H]1c1cc(O)c(O)c(O)c1)c1cc(O)c(O)c(O)c1 [EGCG, (−)-epigallocatechin-3-gallate, reference compound] | 81 ± 4% | inhibit FASN activity; also recorded: decreased in a time-dependent manner |  |  |  | inhibitory ability lower than that of C75 and cerulenin [2]: 4 fold; IC50 ([3]; MCF-7 cells): 205 ± 7.1 µM; IC50 [4]: 197 ± 15.3 µM; IC50 [5]: 150 µM and 149 µM; IC50 [6]: 125 µM; effects in cell death / morphology changes in non-malignant cells [6]: massive cell death; EGCG absorbed [7]: 0.012%
 | 210 °C | O=C(Oc1ccccc1OC(=O)c1cc(O)c(O)c(O)c1)c1cc(O)c(O)c(O)c1 [a, 1,2-bis[(3,4,5-trihydroxybenzoyl)oxy]benzene] |  |  | 165 ± 8.2 µM | 163 ± 5.2 µM | 126 ± 5.2 µM | 
 | 194 to 195 °C | O=C(Oc1cccc(OC(=O)c2cc(O)c(O)c(O)c2)c1)c1cc(O)c(O)c(O)c1 [b, 1,3-bis[(3,4,5-trihydroxybenzoyl)oxy]benzene] |  |  | 162 ± 17.8 µM | 173 ± 40.2 µM | 42 ± 7.1 µM | 
did not stimulate CPT-1 activity | 182 to 183 °C | O=C(Oc1cc2ccccc2cc1OC(=O)c1cc(O)c(O)c(O)c1)c1cc(O)c(O)c(O)c1 [e, 2,3-bis[(3,4,5-trihydroxybenzoyl)oxy]naphthalene] | 87.91 ± 7% | inhibit FASN activity; also recorded: decreased in a time-dependent manner | 89 ± 28.7 µM | 136 ± 26.9 µM | 76.5 ± 9.2 µM | weight loss in vivo [8]: without inducing weight loss in vivo; FASN activity, % of control cells (FASN): 69%
did not | 114 to 116 °C | O=C(Oc1ccc(OC(=O)c2cc(O)c(O)c(O)c2)c(-c2ccccc2)c1)c1cc(O)c(O)c(O)c1 [o, 2,5-bis[(3,4,5-trihydroxybenzoyl)oxy]-1,1′-biphenyl] | 86.80 ± 14% |  | 10 ± 2.8 µM | 40 ± 2.8 µM | 17.5 ± 2.6 µM | 
 | 82 to 84 °C | O=C(Oc1ccc(OC(=O)c2ccccc2)c(-c2ccccc2)c1)c1cc(O)c(O)c(O)c1 [p, 6-(benzoyloxy)-1,1′-biphenyl-3-yl 3,4,5-trihydroxybenzoate] |  |  |  | > 150 µM | 73.5 ± 4.9 µM | 

Structure (SMILES) | stimulation of CPT-1 activity (in words) (rat CPT-1) | melting point | % CPT-1 activity (rat CPT-1) | inhibition of FASN activity (in words) (FASN) | IC50 [3, 9] | IC50 ([4]; Homo sapiens) | IC50 ([5]; Homo sapiens, SK-BR-3, 48 h) | further results
O=C(Oc1ccc(-c2ccc(OC(=O)c3cc(O)c(O)c(O)c3)cc2)cc1)c1cc(O)c(O)c(O)c1 [q, 4,4′-bis[(3,4,5-trihydroxybenzoyl)oxy]-1,1′-biphenyl] | did not stimulate CPT-1 activity |  | 84.38 ± 4% | inhibit FASN activity; also recorded: decreased in a time-dependent manner | 2.5 ± 0.1 µM | 5.2 ± 3.5 µM | 4 ± 1 µM | weight loss in vivo [8]: without inducing weight loss in vivo; FASN activity, % of control cells (FASN): 20%; reduction of FASN activity (FASN; after 24 h of cell exposure): 50%; IC50 [5]: 4.4 ± 1.4 µM; IC50 ([6]; Fibroblast): 13 ± 4 µM; effect on non-malignant cells / normal fibroblasts ([6]; at concentrations similar to IC50): not affected; effects in cell death / morphology changes in non-malignant cells [6]: No significant effects
